Results reported in PubChem BioAssay (NCI).
In brackets after ≈: the same amount, converted by molar mass.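 Grown in 96-well plates, cells were treated for 48 hours with each compound at five concentrations. Insufficient inhibition: endpoint recorded as highest concentration tested. The concentration for 50% growth inhibition is given as GI50. TGI is the concentration that stops growth completely.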 Peptide text beside a SMILES is read from it. * marks the point of attachment. Boc = CC(C)(C)OC(=O)*

Legend:
Assay in all cases: NCI anticancer screen, dose series, 48 h
SNB-75 CNS = tested on: SNB-75 CNS
HS 578T breast = tested on: HS 578T breast
UACC-62 melanoma = tested on: UACC-62 melanoma
HOP-92 NSCLC = tested on: HOP-92 NSCLC
OVCAR-5 ovarian = tested on: OVCAR-5 ovarian
SF-268 CNS = tested on: SF-268 CNS
HT29 colon = tested on: HT29 colon
OVCAR-3 ovarian = tested on: OVCAR-3 ovarian
SW-620 colon = tested on: SW-620 colon
NCI/ADR-RES ovarian = tested on: NCI/ADR-RES ovarian
NCI-H460 lung = tested on: NCI-H460 lung
786-0 renal = tested on: 786-0 renal
CAKI-1 renal = tested on: CAKI-1 renal
NCI-H522 lung = tested on: NCI-H522 lung
CCRF-CEM leukemia = tested on: CCRF-CEM leukemia
K-562 leukemia = tested on: K-562 leukemia
SR leukemia = tested on: SR leukemia
UO-31 renal = tested on: UO-31 renal
MCF7 breast = tested on: MCF7 breast
MALME-3M melanoma = tested on: MALME-3M melanoma
SF-295 CNS = tested on: SF-295 CNS
HL-60(TB) leukemia = tested on: HL-60(TB) leukemia
T-47D breast = tested on: T-47D breast
RPMI-8226 leukemia = tested on: RPMI-8226 leukemia
MDA-MB-435 = tested on: MDA-MB-435
HCT-15 colon = tested on: HCT-15 colon
ACHN renal = tested on: ACHN renal
OVCAR-8 ovarian = tested on: OVCAR-8 ovarian
SK-MEL-28 melanoma = tested on: SK-MEL-28 melanoma
OVCAR-4 ovarian = tested on: OVCAR-4 ovarian
KM12 colon = tested on: KM12 colon
COLO 205 colon = tested on: COLO 205 colon
SK-MEL-2 melanoma = tested on: SK-MEL-2 melanoma
UACC-257 melanoma = tested on: UACC-257 melanoma
SK-OV-3 ovarian = tested on: SK-OV-3 ovarian
HCT-116 colon = tested on: HCT-116 colon
SN12C renal = tested on: SN12C renal
LOX IMVI melanoma = tested on: LOX IMVI melanoma
SK-MEL-5 melanoma = tested on: SK-MEL-5 melanoma
IGROV1 ovarian = tested on: IGROV1 ovarian
HCC-2998 colon = tested on: HCC-2998 colon
SNB-19 CNS = tested on: SNB-19 CNS
PC-3 prostate = tested on: PC-3 prostate
U251 CNS = tested on: U251 CNS
A549 NSCLC = tested on: A549 NSCLC
MDA-MB-231 breast = tested on: MDA-MB-231 breast
MOLT-4 leukemia = tested on: MOLT-4 leukemia
SF-539 CNS = tested on: SF-539 CNS
TK-10 renal = tested on: TK-10 renal
HOP-62 NSCLC = tested on: HOP-62 NSCLC
M14 melanoma = tested on: M14 melanoma
DU-145 prostate = tested on: DU-145 prostate
RXF 393 renal = tested on: RXF 393 renal
NCI-H226 lung = tested on: NCI-H226 lung
A498 renal = tested on: A498 renal
NCI-H23 lung = tested on: NCI-H23 lung

CC(NC(=O)C(NC(=O)OC(C)(C)C)C(C)C)C(=O)N1CCCC1C(=O)O (stereo not drawn) (Boc-Val-Ala-Pro-OH; configuration not given here) showed a GI50 (SNB-75 CNS) of 0.0101 µg/mL, a TGI (SNB-75 CNS) of 0.09 µg/mL and a GI50 (HS 578T breast) of 38.1 µg/mL (≈ 98.8 µM). It also gave a GI50 (UACC-62 melanoma) of 36.2 µg/mL.
Compound C/C1=C\CC[C@@](C)(O)[C@@H]2CC3[C@@H](OC(=O)C34CC4)[C@@H](O2)[C@H](C)CCC1 (some centres undefined) has a GI50 (HOP-92 NSCLC) of 38.9 µM, a TGI (HOP-92 NSCLC) greater than 100 µM and a GI50 (OVCAR-5 ovarian) of 16.1 µM. For the same compound, the TGI (OVCAR-5 ovarian) was 30.2 µM, the GI50 (SF-268 CNS) was 19.4 µM and the TGI (SF-268 CNS) was 73.3 µM. For the same compound, the GI50 (HT29 colon) was 28.9 µM, the TGI (HT29 colon) was greater than 100 µM and the GI50 (OVCAR-3 ovarian) was 20.1 µM. It also gave a TGI (OVCAR-3 ovarian) of 39.6 µM, a GI50 (SW-620 colon) of 35.2 µM and a TGI (SW-620 colon) greater than 100 µM. For the same compound, the GI50 (NCI/ADR-RES ovarian) was 17 µM, the TGI (NCI/ADR-RES ovarian) was 34 µM and the GI50 (NCI-H460 lung) was 12 µM. The TGI (NCI-H460 lung) was 24.7 µM, the GI50 (786-0 renal) was 16.2 µM and the TGI (786-0 renal) was 29.8 µM. It also gave a GI50 (SNB-75 CNS) of 41.9 µM, a TGI (SNB-75 CNS) greater than 100 µM and a GI50 (CAKI-1 renal) of 18 µM. For the same compound, the TGI (CAKI-1 renal) was 34.4 µM, the GI50 (NCI-H522 lung) was 12.7 µM and the TGI (NCI-H522 lung) was 28.5 µM. For the same compound, the GI50 (CCRF-CEM leukemia) was 3.95 µM, the TGI (CCRF-CEM leukemia) was greater than 100 µM and the GI50 (K-562 leukemia) was 35.1 µM. For the same compound, the TGI (K-562 leukemia) was greater than 100 µM, the GI50 (SR leukemia) was 19.9 µM and the TGI (SR leukemia) was greater than 100 µM. It also gave a GI50 (UO-31 renal) of 15.3 µM, a TGI (UO-31 renal) of 29.9 µM and a GI50 (UACC-62 melanoma) of 21.3 µM. It also gave a TGI (UACC-62 melanoma) of 56.4 µM, a GI50 (MCF7 breast) of 0.238 µM and a TGI (MCF7 breast) of 25.3 µM. The GI50 (MALME-3M melanoma) was 13.5 µM, the TGI (MALME-3M melanoma) was 39.3 µM and the GI50 (SF-295 CNS) was 17.3 µM. The TGI (SF-295 CNS) was 34.4 µM, the GI50 (HL-60(TB) leukemia) was 42.4 µM and the TGI (HL-60(TB) leukemia) was greater than 100 µM. For the same compound, the GI50 (T-47D breast) was 47.2 µM, the TGI (T-47D breast) was greater than 100 µM and the GI50 (RPMI-8226 leukemia) was 30.1 µM. For the same compound, the TGI (RPMI-8226 leukemia) was greater than 100 µM, the GI50 (MDA-MB-435) was 20.3 µM and the TGI (MDA-MB-435) was 44.2 µM. For the same compound, the GI50 (HCT-15 colon) was 23.7 µM, the TGI (HCT-15 colon) was 58 µM and the GI50 (ACHN renal) was 16.9 µM. The TGI (ACHN renal) was 35.1 µM, the GI50 (OVCAR-8 ovarian) was 18.8 µM and the TGI (OVCAR-8 ovarian) was 38.1 µM. The GI50 (SK-MEL-28 melanoma) was 61.7 µM, the TGI (SK-MEL-28 melanoma) was greater than 100 µM and the GI50 (OVCAR-4 ovarian) was 38 µM. The TGI (OVCAR-4 ovarian) was greater than 100 µM, the GI50 (KM12 colon) was 21.6 µM and the TGI (KM12 colon) was 62.2 µM. It also gave a GI50 (COLO 205 colon) of 24.2 µM, a TGI (COLO 205 colon) of 63.6 µM and a GI50 (SK-MEL-2 melanoma) of 16.2 µM. It also gave a TGI (SK-MEL-2 melanoma) of 34.4 µM, a GI50 (UACC-257 melanoma) of 20.4 µM and a TGI (UACC-257 melanoma) of 44.1 µM. The GI50 (SK-OV-3 ovarian) was 55 µM, the TGI (SK-OV-3 ovarian) was greater than 100 µM and the GI50 (HCT-116 colon) was 16.5 µM. The TGI (HCT-116 colon) was 30.1 µM, the GI50 (SN12C renal) was 20.3 µM and the TGI (SN12C renal) was 43.5 µM. The GI50 (LOX IMVI melanoma) was 6.09 µM, the TGI (LOX IMVI melanoma) was 25.8 µM and the GI50 (SK-MEL-5 melanoma) was 10.6 µM. The TGI (SK-MEL-5 melanoma) was 30.7 µM, the GI50 (IGROV1 ovarian) was 6.48 µM and the TGI (IGROV1 ovarian) was 24.1 µM. For the same compound, the GI50 (HCC-2998 colon) was 14.7 µM, the TGI (HCC-2998 colon) was 27.8 µM and the GI50 (SNB-19 CNS) was 58.6 µM. It also gave a TGI (SNB-19 CNS) greater than 100 µM, a GI50 (PC-3 prostate) of 20.1 µM and a TGI (PC-3 prostate) of 44.6 µM. The GI50 (U251 CNS) was 19.9 µM, the TGI (U251 CNS) was 42.7 µM and the GI50 (A549 NSCLC) was 24.5 µM. It also gave a TGI (A549 NSCLC) of 77.6 µM, a GI50 (MDA-MB-231 breast) of 19.6 µM and a TGI (MDA-MB-231 breast) of 43.5 µM. The GI50 (MOLT-4 leukemia) was 39.2 µM and the TGI (MOLT-4 leukemia) was greater than 100 µM.
COc1cc2c(c(OC)c1OC)C(=O)[C@H]1OC(=O)N[C@@H]21 was tested, and the TGI (HOP-92 NSCLC) was greater than 100 µM, the TGI (SF-539 CNS) was greater than 100 µM and the TGI (OVCAR-5 ovarian) was greater than 100 µM. It also gave a TGI (SF-268 CNS) greater than 100 µM, a TGI (HT29 colon) greater than 100 µM and a TGI (OVCAR-3 ovarian) greater than 100 µM. For the same compound, the TGI (SW-620 colon) was greater than 100 µM, the TGI (NCI/ADR-RES ovarian) was greater than 100 µM and the TGI (786-0 renal) was greater than 100 µM. The TGI (SNB-75 CNS) was greater than 100 µM, the TGI (CAKI-1 renal) was greater than 100 µM and the TGI (HS 578T breast) was greater than 100 µM. It also gave a TGI (CCRF-CEM leukemia) greater than 100 µM, a TGI (K-562 leukemia) greater than 100 µM and a TGI (SR leukemia) greater than 100 µM. For the same compound, the TGI (UO-31 renal) was greater than 100 µM, the TGI (UACC-62 melanoma) was greater than 100 µM and the TGI (MCF7 breast) was greater than 100 µM. It also gave a TGI (SF-295 CNS) greater than 100 µM, a TGI (HL-60(TB) leukemia) greater than 100 µM and a TGI (T-47D breast) greater than 100 µM. The TGI (TK-10 renal) was greater than 100 µM, the TGI (HOP-62 NSCLC) was greater than 100 µM and the TGI (RPMI-8226 leukemia) was greater than 100 µM. The TGI (MDA-MB-435) was greater than 100 µM, the TGI (HCT-15 colon) was greater than 100 µM and the TGI (ACHN renal) was greater than 100 µM. The TGI (OVCAR-8 ovarian) was greater than 100 µM, the TGI (SK-MEL-28 melanoma) was greater than 100 µM and the TGI (OVCAR-4 ovarian) was greater than 100 µM. The TGI (KM12 colon) was greater than 100 µM, the TGI (COLO 205 colon) was greater than 100 µM and the TGI (SK-MEL-2 melanoma) was greater than 100 µM. It also gave a TGI (UACC-257 melanoma) greater than 100 µM, a TGI (SK-OV-3 ovarian) greater than 100 µM and a TGI (HCT-116 colon) greater than 100 µM. The TGI (SN12C renal) was greater than 100 µM, the TGI (M14 melanoma) was greater than 100 µM and the TGI (LOX IMVI melanoma) was greater than 100 µM. The TGI (DU-145 prostate) was greater than 100 µM, the TGI (HCC-2998 colon) was greater than 100 µM and the TGI (SNB-19 CNS) was greater than 100 µM. It also gave a TGI (PC-3 prostate) greater than 100 µM, a TGI (RXF 393 renal) greater than 100 µM and a TGI (U251 CNS) greater than 100 µM. For the same compound, the TGI (NCI-H226 lung) was greater than 100 µM, the TGI (A549 NSCLC) was greater than 100 µM and the TGI (A498 renal) was greater than 100 µM. The TGI (MDA-MB-231 breast) was greater than 100 µM, the TGI (NCI-H23 lung) was greater than 100 µM and the TGI (MOLT-4 leukemia) was greater than 100 µM.
With N=C(N)c1ccc(-c2ccc(-c3ccc(Cl)cc3)o2)nc1 the GI50 (CAKI-1 renal) was 1.42 µM and the TGI (CAKI-1 renal) was 2.74 µM.
